The text below walks through data of patent US5397796A, “2,4-dioxoimidazolidine compounds and compositions, and processes for administering same” (Cassella AG, priority 1992, dated 1995).

Test [1] has as its system gel-filtered human platelets. Kind of test: Inhibition of aggregation of gel-filtered human platelets after ADP or thrombin stimulation. It counts as cell-based. On the procedure: (§1) The compounds are tested in particular for their inhibitory action in blood platelet aggregation and the adhesion of fibrinogen to blood platelets. Gel-filtered blood platelets from human donor blood are used, which are activated with ADP or thrombin.
As a functional test, the inhibition of aggregation of gel-filtered human platelets by the compounds according to the invention is measured after ADP or thrombin stimulation. The IC50 value of the inhibition is given.

Test [2] addresses T1, fibrinogen receptor (glycoprotein IIb/IIIa) (Homo sapiens, UniProt P05106+P08514).
T1 construct: endogenous in cells; host or cells: gel-filtered human platelets from donor blood, stimulated with ADP (10 µM)
The test can be described thus: Inhibition of binding of 125I-fibrinogen to its receptor on intact, gel-filtered human platelets. As to conditions: inhibition of 125I-fibrinogen binding, stimulation with ADP (10 μM), read-out: Ki (μM), ADP-stimulated. On the procedure:
as §1
The inhibition of the binding of fibrinogen to its receptor (glycoprotein IIb/IIIa) by the compounds according to the invention is tested on intact, gel-filtered human platelets. The Ki value of the inhibition of binding of ^125 I-fibrinogen after stimulation with ADP (10 μM) is given.

Where [3] appears, read: Platelet, ADP stimulation, read-out: IC50 (μM), ADP-stimulated.
Setting [4] is: Platelet, thrombin stimulation, read-out: IC50 (μM), Thrombin-stimulated.
Setting [5] is: ADP stimulation, read-out: IC50 (μM), ADP-stimulated.
[6] abbreviates: thrombin stimulation, read-out: IC50 (μM), Thrombin-stimulated.

Each structure is given as a SMILES string. Where two headings read alike, the source gives them in different places.

T1 sequence (P08514 32-887 limits assumed): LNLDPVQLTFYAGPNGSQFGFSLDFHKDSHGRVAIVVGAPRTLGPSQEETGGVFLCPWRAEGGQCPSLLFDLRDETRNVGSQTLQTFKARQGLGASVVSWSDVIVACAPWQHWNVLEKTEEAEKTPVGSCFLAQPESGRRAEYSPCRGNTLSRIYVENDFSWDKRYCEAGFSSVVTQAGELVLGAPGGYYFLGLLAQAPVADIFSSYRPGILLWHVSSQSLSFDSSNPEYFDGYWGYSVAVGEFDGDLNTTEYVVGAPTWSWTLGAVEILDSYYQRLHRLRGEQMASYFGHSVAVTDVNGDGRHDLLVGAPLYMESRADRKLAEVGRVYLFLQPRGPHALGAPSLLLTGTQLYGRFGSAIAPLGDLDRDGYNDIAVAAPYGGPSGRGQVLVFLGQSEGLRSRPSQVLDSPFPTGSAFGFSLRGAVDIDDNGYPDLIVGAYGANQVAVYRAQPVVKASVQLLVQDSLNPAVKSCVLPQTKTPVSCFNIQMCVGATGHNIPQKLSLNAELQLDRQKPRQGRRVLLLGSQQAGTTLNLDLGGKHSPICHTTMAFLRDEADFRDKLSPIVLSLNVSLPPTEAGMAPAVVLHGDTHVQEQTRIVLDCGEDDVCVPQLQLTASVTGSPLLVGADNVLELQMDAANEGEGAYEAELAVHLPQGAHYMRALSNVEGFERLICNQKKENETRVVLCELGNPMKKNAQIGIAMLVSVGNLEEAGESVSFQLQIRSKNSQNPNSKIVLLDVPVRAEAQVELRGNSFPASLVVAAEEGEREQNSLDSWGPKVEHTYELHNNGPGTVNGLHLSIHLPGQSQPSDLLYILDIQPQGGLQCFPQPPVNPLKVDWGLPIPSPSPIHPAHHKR
T1 sequence (P08514 891-1039 partner limits assumed): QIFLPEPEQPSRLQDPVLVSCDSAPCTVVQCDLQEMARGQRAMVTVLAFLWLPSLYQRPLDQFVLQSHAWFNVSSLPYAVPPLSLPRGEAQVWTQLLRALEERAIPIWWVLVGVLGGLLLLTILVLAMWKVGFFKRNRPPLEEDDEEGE
T1 sequence (P05106 27-788): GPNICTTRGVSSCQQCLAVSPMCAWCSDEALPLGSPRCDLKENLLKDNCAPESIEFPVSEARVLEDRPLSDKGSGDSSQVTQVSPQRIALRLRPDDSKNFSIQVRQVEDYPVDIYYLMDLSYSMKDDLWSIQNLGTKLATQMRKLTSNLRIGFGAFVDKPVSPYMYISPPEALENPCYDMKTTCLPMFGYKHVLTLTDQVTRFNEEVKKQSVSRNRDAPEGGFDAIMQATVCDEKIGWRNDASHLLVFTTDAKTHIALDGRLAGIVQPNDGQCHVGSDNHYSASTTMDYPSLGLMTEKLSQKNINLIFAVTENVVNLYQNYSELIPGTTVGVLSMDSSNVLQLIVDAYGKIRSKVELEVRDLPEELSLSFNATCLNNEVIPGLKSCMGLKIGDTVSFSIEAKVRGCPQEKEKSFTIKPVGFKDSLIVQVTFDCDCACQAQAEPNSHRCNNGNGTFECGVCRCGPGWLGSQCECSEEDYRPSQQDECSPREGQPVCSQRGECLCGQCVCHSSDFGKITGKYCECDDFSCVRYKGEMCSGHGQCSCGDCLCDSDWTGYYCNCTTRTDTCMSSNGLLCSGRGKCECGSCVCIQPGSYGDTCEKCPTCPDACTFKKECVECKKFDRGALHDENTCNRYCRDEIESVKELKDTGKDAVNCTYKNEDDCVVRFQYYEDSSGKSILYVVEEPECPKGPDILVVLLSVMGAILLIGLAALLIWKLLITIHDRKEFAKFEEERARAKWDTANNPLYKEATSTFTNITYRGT

A word on the IC50: it is the concentration that inhibits the measured activity by half. One may read the Ki as a dissociation constant, usually derived from enzyme kinetics or from competition with a known ligand. `N=C(N)NCCC[C@@H]1NC(=O)N(CC(=O)N[C@@H](CC(=O)O)C(=O)N[C@@H](Cc2ccccc2)C(=O)NCCCCN)C1=O` [Example 1, (5-(S)-(3-Guanidinopropyl)-2,4-dioxoimidazolidin-3-yl)acetyl-L-aspartyl-L-phenylalanine (4-aminobutyl) amide acetate]: the IC50 in test [1] (setting [3]) came to 1.5 µM; in test [1] (setting [4]), 2 µM. Besides, the Ki in test [2] came out at 2.5 µM.

For the compound `N=C(N)NCCC[C@@H]1NC(=O)N(CC(=O)N[C@@H](CC(=O)O)C(=O)N[C@@H](Cc2ccccc2)C(=O)NCCCCCCN)C1=O` [Example 2, (5-(S)-(3-Guanidinopropyl)-2,4-dioxoimidazolidin-3-yl)acetyl-L-aspartyl-L-phenylalanine (6-aminohexyl) amide acetate], the IC50 was 3 µM in test [1] (setting [3]) and 3.5 µM in test [1] (setting [4]). The Ki in test [2] turned out to be 2.44 µM.

For the compound `N=C(N)NCCC[C@@H]1NC(=O)N(CC(=O)N[C@@H](CC(=O)O)C(=O)N[C@@H](Cc2ccccc2)C(=O)NCCCCCCCCN)C1=O` [Example 3, (5-(S)-(3-Guanidinopropyl)-2,4-dioxoimidazolidin-3-yl)acetyl-L-aspartyl-L-phenylalanine (8-aminooctyl) amide acetate], the IC50 is 5 µM in test [1] (setting [3]) and 3 µM in test [1] (setting [4]). The Ki in test [2] worked out at 3.21 µM.

With `N=C(N)c1ccc(CC2NC(=O)N(CC(=O)N[C@@H](CC(=O)O)C(=O)N[C@@H](Cc3ccccc3)C(=O)NCCCCN)C2=O)cc1` (stereo partly drawn) [Example 4, (5-(R,S)-(4-Formamidinobenzyl)-2,4-dioxoimidazolidin-3-yl)acetyl-L-aspartyl-L-phenylalanine (4-aminobutyl) amide acetate], the IC50 worked out at 0.45 µM in test [1] (setting [5]) and 1 µM in test [1] (setting [6]). Moreover, in test [2], the Ki came to 0.32 µM.

As to `N=C(N)c1ccc(CC2NC(=O)N(CC(=O)N[C@@H](CC(=O)O)C(=O)N[C@@H](CCCCN)C(=O)NCCCCN)C2=O)cc1` (stereo partly drawn) [Example 7, (5-(R,S)-(4-Formamidino-benzyl)-2,4-dioxoimidazolidin-3-yl)acetyl-L-aspartyl-L-lysine (4-aminobutyl) amide], the IC50 was determined as 0.25 µM in test [1] (setting [5]) and 0.6 µM in test [1] (setting [6]). In test [2], the Ki came to 0.17 µM.
